Source: US20210045385A1, “PYRIDAZINONE-SUBSTITUTED KETOXIMES AS HERBICIDES” (FMC Corporation, priority 2018, published 2021)

What was measured:
Assay type in all cases: in vivo
rice (Oryza sativa) = assay: Test B flooded paddy test, visual plant response rating; conditions: 250 g ai/ha, Flood, applied to paddy water, 2-leaf stage, evaluated after 13 to 15 days
How it was run: (§1)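 Greenhouse paddy conditions applied: two-leaf plants, a 3 cm flood above the soil surface maintained throughout, and compound added to the water rather than the foliage. Plants were judged visually against controls at 13 to 15 days.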

[1] = tested on: sedge, umbrella (small-flower umbrella sedge, Cyperus difformis); assay: as above; conditions: 250 g ai/ha, Flood, applied to paddy water, 2-leaf stage, evaluated after 13 to 15 days
How it was run: as §1

[2] = tested on: ducksalad (Heteranhera limosa); assay: as above; conditions: 250 g ai/ha, Flood, applied to paddy water, 2-leaf stage, evaluated after 13 to 15 days
How it was run: as §1

[3] = tested on: barnyardgrass (Echinochloa crus-galli); assay: as above; conditions: 250 g ai/ha, Flood, applied to paddy water, 2-leaf stage, evaluated after 13 to 15 days
How it was run: as §1

[4] = tested on: Italian ryegrass (Lolium multiflorum); assay: Test A postemergence, visual plant response rating; conditions: for Ryegrass, Italian plant response rating (0 to 100 scale): 500 g ai/ha, postemergence, 0 is no effect, 100 is complete control; for Ryegrass, Italian plant response rating: Postemergence, 125 g ai/ha, 0 to 100 scale (0 no effect, 100 complete control)
How it was run: (§2)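 Compared with untreated controls, treated plants received a visual injury score on a 0–100 scale around 10 days after application. The compound, in a non-phytotoxic solvent with surfactant, was given as a preemergence soil spray or postemergence at the one- to two-leaf stage.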

[5] = tested on: galium (catchweed bedstraw, Galium aparine); assay: Test A postemergence, visual plant response rating; conditions: for Galium plant response rating (0 to 100 scale): 500 g ai/ha, postemergence, 0 is no effect, 100 is complete control; for Galium plant response rating: Postemergence, 125 g ai/ha, 0 to 100 scale (0 no effect, 100 complete control)
How it was run: as §2

corn (Zea mays) = assay: Test A postemergence, visual plant response rating; conditions: for Corn plant response rating (0 to 100 scale): 500 g ai/ha, postemergence, 0 is no effect, 100 is complete control; for Corn plant response rating: Postemergence, 125 g ai/ha, 0 to 100 scale (0 no effect, 100 complete control)
How it was run: as §2

[6] = tested on: foxtail, giant (giant foxtail, Setaria faberii); assay: Test A postemergence, visual plant response rating; conditions: for Foxtail, Giant plant response rating (0 to 100 scale): 500 g ai/ha, postemergence, 0 is no effect, 100 is complete control; for Foxtail, Giant plant response rating: Postemergence, 125 g ai/ha, 0 to 100 scale (0 no effect, 100 complete control)
How it was run: as §2

[7] = tested on: blackgrass (Alopecurus myosuroides); assay: Test A postemergence, visual plant response rating; conditions: for Blackgrass plant response rating (0 to 100 scale): 500 g ai/ha, postemergence, 0 is no effect, 100 is complete control; for Blackgrass plant response rating: Postemergence, 125 g ai/ha, 0 to 100 scale (0 no effect, 100 complete control)
How it was run: as §2

kochia (Kochia scoparia) [8] = assay: Test A postemergence, visual plant response rating; conditions: for Kochia plant response rating (0 to 100 scale): 500 g ai/ha, postemergence, 0 is no effect, 100 is complete control; for Kochia plant response rating: Postemergence, 125 g ai/ha, 0 to 100 scale (0 no effect, 100 complete control)
How it was run: as §2

[9] = tested on: pigweed (Amaranthus retroflexus); assay: Test A postemergence, visual plant response rating; conditions: for Pigweed plant response rating (0 to 100 scale): 500 g ai/ha, postemergence, 0 is no effect, 100 is complete control; for Pigweed plant response rating: Postemergence, 125 g ai/ha, 0 to 100 scale (0 no effect, 100 complete control)
How it was run: as §2

[10] = tested on: wheat (Triticum aestivum); assay: Test A postemergence, visual plant response rating; conditions: for Wheat plant response rating (0 to 100 scale): 500 g ai/ha, postemergence, 0 is no effect, 100 is complete control; for Wheat plant response rating: Postemergence, 125 g ai/ha, 0 to 100 scale (0 no effect, 100 complete control)
How it was run: as §2

[11] = tested on: barnyardgrass (Echinochloa crus-galli); assay: Test A postemergence, visual plant response rating; conditions: for Barnyardgrass plant response rating (0 to 100 scale): 500 g ai/ha, postemergence, 0 is no effect, 100 is complete control; for Barnyardgrass plant response rating: Postemergence, 125 g ai/ha, 0 to 100 scale (0 no effect, 100 complete control)
How it was run: as §2

[12] = tested on: ragweed (common ragweed, Ambrosia elatior); assay: Test A postemergence, visual plant response rating; conditions: for Ragweed plant response rating (0 to 100 scale): 500 g ai/ha, postemergence, 0 is no effect, 100 is complete control; for Ragweed plant response rating: Postemergence, 125 g ai/ha, 0 to 100 scale (0 no effect, 100 complete control)
How it was run: as §2

[13] = tested on: Italian ryegrass (Lolium multiflorum); assay: Test A preemergence, visual plant response rating; conditions: for Ryegrass, Italian plant response rating: 125 g ai/ha, preemergence, 0 to 100 scale, 0 no effect, 100 complete control; for Ryegrass, Italian plant response rating (0 to 100 scale): 500 g ai/ha Preemergence, approx. 10 days
How it was run: as §2

[14] = tested on: foxtail, giant (giant foxtail, Setaria faberii); assay: Test A preemergence, visual plant response rating; conditions: for Foxtail, Giant plant response rating: 125 g ai/ha, preemergence, 0 to 100 scale, 0 no effect, 100 complete control; for Foxtail, Giant plant response rating (0 to 100 scale): 500 g ai/ha Preemergence, approx. 10 days
How it was run: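 Formulated in a non-phytotoxic solvent mixture including surfactant, each test chemical was sprayed onto the soil surface after sowing, or onto seedlings 2 to 10 cm high. Roughly 10 days later, plants were compared with untreated controls and rated for injury from 0 (no effect) to 100 (complete control).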

kochia (Kochia scoparia) [15] = assay: Test A preemergence, visual plant response rating; conditions: for Kochia plant response rating: 125 g ai/ha, preemergence, 0 to 100 scale, 0 no effect, 100 complete control; for Kochia plant response rating (0 to 100 scale): 500 g ai/ha Preemergence, approx. 10 days
How it was run: as §2

[16] = tested on: pigweed (Amaranthus retroflexus); assay: Test A preemergence, visual plant response rating; conditions: for Pigweed plant response rating: 125 g ai/ha, preemergence, 0 to 100 scale, 0 no effect, 100 complete control; for Pigweed plant response rating (0 to 100 scale): 500 g ai/ha Preemergence, approx. 10 days
How it was run: as §2

[17] = tested on: barnyardgrass (Echinochloa crus-galli); assay: Test A preemergence, visual plant response rating; conditions: for Barnyardgrass plant response rating: 125 g ai/ha, preemergence, 0 to 100 scale, 0 no effect, 100 complete control; for Barnyardgrass plant response rating (0 to 100 scale): 500 g ai/ha Preemergence, approx. 10 days
How it was run: as §2

[18] = tested on: ragweed (common ragweed, Ambrosia elatior); assay: Test A preemergence, visual plant response rating; conditions: for Ragweed plant response rating: 125 g ai/ha, preemergence, 0 to 100 scale, 0 no effect, 100 complete control; for Ragweed plant response rating (0 to 100 scale): 500 g ai/ha Preemergence, approx. 10 days
How it was run: as §2

## CO/N=C(\c1ccccc1C#N)c1c(O)c(C)nn(C)c1=O [Compound 76]
Rice (Oryza sativa)
  Plant response rating, Rice (0 to 100 scale, 0 is no effect, 100 is complete control): 0
[1]
  Plant response rating, Sedge, Umbrella (0 to 100 scale, 0 is no effect, 100 is complete control): 0
[2]
  Plant response rating, Ducksalad (0 to 100 scale, 0 is no effect, 100 is complete control): 0
[3]
  Plant response rating, Barnyardgrass (0 to 100 scale, 0 is no effect, 100 is complete control): 0
[4]
  Ryegrass, Italian plant response rating (0 to 100 scale): 30
  Ryegrass, Italian plant response rating: 20
[5]
  Galium plant response rating (0 to 100 scale): 70
  Galium plant response rating: 40
Corn (Zea mays)
  Corn plant response rating (0 to 100 scale): 0
  Corn plant response rating: 0
[6]
  Foxtail, Giant plant response rating (0 to 100 scale): 0
  Foxtail, Giant plant response rating: 0
[7]
  Blackgrass plant response rating (0 to 100 scale): 0
  Blackgrass plant response rating: 0
Kochia (Kochia scoparia) [8]
  Kochia plant response rating (0 to 100 scale): 0
  Kochia plant response rating: 0
[9]
  Pigweed plant response rating (0 to 100 scale): 70
  Pigweed plant response rating: 40
[10]
  Wheat plant response rating (0 to 100 scale): 0
  Wheat plant response rating: 0
[11]
  Barnyardgrass plant response rating (0 to 100 scale): 20
  Barnyardgrass plant response rating: 20
[12]
  Ragweed plant response rating (0 to 100 scale): 60
  Ragweed plant response rating: 10
[13]
  Ryegrass, Italian plant response rating: 0
  Ryegrass, Italian plant response rating (0 to 100 scale): 0
[14]
  Foxtail, Giant plant response rating: 0
  Foxtail, Giant plant response rating (0 to 100 scale): 0
Kochia (Kochia scoparia) [15]
  Kochia plant response rating: 0
  Kochia plant response rating (0 to 100 scale): 0
[16]
  Pigweed plant response rating: 0
  Pigweed plant response rating (0 to 100 scale): 10
[17]
  Barnyardgrass plant response rating: 0
  Barnyardgrass plant response rating (0 to 100 scale): 0
[18]
  Ragweed plant response rating: 0
  Ragweed plant response rating (0 to 100 scale): 0

## CO/N=C(/c1ccccc1C#N)c1c(O)c(C)nn(C)c1=O [Compound 77]
Rice (Oryza sativa)
  Plant response rating, Rice (0 to 100 scale, 0 is no effect, 100 is complete control): 0
[1]
  Plant response rating, Sedge, Umbrella (0 to 100 scale, 0 is no effect, 100 is complete control): 0
[2]
  Plant response rating, Ducksalad (0 to 100 scale, 0 is no effect, 100 is complete control): 0
[3]
  Plant response rating, Barnyardgrass (0 to 100 scale, 0 is no effect, 100 is complete control): 0
[4]
  Ryegrass, Italian plant response rating (0 to 100 scale): 20
  Ryegrass, Italian plant response rating: 0
[5]
  Galium plant response rating (0 to 100 scale): 40
  Galium plant response rating: 40
Corn (Zea mays)
  Corn plant response rating (0 to 100 scale): 0
  Corn plant response rating: 0
[6]
  Foxtail, Giant plant response rating (0 to 100 scale): 10
  Foxtail, Giant plant response rating: 0
[7]
  Blackgrass plant response rating (0 to 100 scale): 0
  Blackgrass plant response rating: 0
Kochia (Kochia scoparia) [8]
  Kochia plant response rating (0 to 100 scale): 30
  Kochia plant response rating: 0
[9]
  Pigweed plant response rating (0 to 100 scale): 70
  Pigweed plant response rating: 30
[10]
  Wheat plant response rating (0 to 100 scale): 0
  Wheat plant response rating: 0
[11]
  Barnyardgrass plant response rating (0 to 100 scale): 0
  Barnyardgrass plant response rating: 0
[12]
  Ragweed plant response rating (0 to 100 scale): 30
  Ragweed plant response rating: 0
[13]
  Ryegrass, Italian plant response rating: 0
  Ryegrass, Italian plant response rating (0 to 100 scale): 0
[14]
  Foxtail, Giant plant response rating: 0
  Foxtail, Giant plant response rating (0 to 100 scale): 0
Kochia (Kochia scoparia) [15]
  Kochia plant response rating: 0
  Kochia plant response rating (0 to 100 scale): 0
[16]
  Pigweed plant response rating: 0
  Pigweed plant response rating (0 to 100 scale): 0
[17]
  Barnyardgrass plant response rating: 0
  Barnyardgrass plant response rating (0 to 100 scale): 0
[18]
  Ragweed plant response rating: 10
  Ragweed plant response rating (0 to 100 scale): 30

## CCO/N=C(/c1c(O)c(C)nn(C)c1=O)c1cccc2ccccc12 [Compound 78]
Rice (Oryza sativa)
  Plant response rating, Rice (0 to 100 scale, 0 is no effect, 100 is complete control): 0
[1]
  Plant response rating, Sedge, Umbrella (0 to 100 scale, 0 is no effect, 100 is complete control): 0
[2]
  Plant response rating, Ducksalad (0 to 100 scale, 0 is no effect, 100 is complete control): 0
[3]
  Plant response rating, Barnyardgrass (0 to 100 scale, 0 is no effect, 100 is complete control): 0
[4]
  Ryegrass, Italian plant response rating (0 to 100 scale): 40
  Ryegrass, Italian plant response rating: 30
[5]
  Galium plant response rating (0 to 100 scale): 100
  Galium plant response rating: 90
Corn (Zea mays)
  Corn plant response rating (0 to 100 scale): 30
  Corn plant response rating: 20
[6]
  Foxtail, Giant plant response rating (0 to 100 scale): 80
  Foxtail, Giant plant response rating: 70
[7]
  Blackgrass plant response rating (0 to 100 scale): 80
  Blackgrass plant response rating: 70
Kochia (Kochia scoparia) [8]
  Kochia plant response rating (0 to 100 scale): 70
  Kochia plant response rating: 60
[9]
  Pigweed plant response rating (0 to 100 scale): 90
  Pigweed plant response rating: 80
[10]
  Wheat plant response rating (0 to 100 scale): 0
  Wheat plant response rating: 0
[11]
  Barnyardgrass plant response rating (0 to 100 scale): 80
  Barnyardgrass plant response rating: 40
[12]
  Ragweed plant response rating (0 to 100 scale): 90
  Ragweed plant response rating: 80
[13]
  Ryegrass, Italian plant response rating: 30
  Ryegrass, Italian plant response rating (0 to 100 scale): 50
[14]
  Foxtail, Giant plant response rating: 80
  Foxtail, Giant plant response rating (0 to 100 scale): 90
Kochia (Kochia scoparia) [15]
  Kochia plant response rating: 10
  Kochia plant response rating (0 to 100 scale): 30
[16]
  Pigweed plant response rating: 20
  Pigweed plant response rating (0 to 100 scale): 100
[17]
  Barnyardgrass plant response rating: 80
  Barnyardgrass plant response rating (0 to 100 scale): 80
[18]
  Ragweed plant response rating: 90
  Ragweed plant response rating (0 to 100 scale): 90
